# Measurements taken from PubChem BioAssay (NCI).
#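 96-well plates; 48 h exposure; 5 concentrations. Endpoints by linear interpolation between flanking doses. Not reached: highest tested concentration assigned. Definition used: TGI = concentration required for complete inhibition of growth.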
# Tests used:
# Assay in all cases: inhibition of tumour cell growth, NCI panel, 48 h
# [1] = system: ACHN renal
# [2] = system: SK-MEL-2 melanoma
# [3] = system: OVCAR-4 ovarian
# [4] = system: MCF7 breast
# [5] = system: MOLT-4 leukemia
# [6] = system: HS 578T breast
# [7] = system: COLO 205 colon
# [8] = system: CAKI-1 renal
# [9] = system: SF-295 CNS
# [10] = system: UO-31 renal
# [11] = system: NCI/ADR-RES ovarian
# [12] = system: PC-3 prostate
# [13] = system: U251 CNS
# [14] = system: K-562 leukemia
# [15] = system: MDA-MB-231 breast
# [16] = system: NCI-H522 lung
# [17] = system: KM12 colon
# [18] = system: HCT-15 colon
# [19] = system: HT29 colon
# [20] = system: SW-620 colon
# [21] = system: BT-549 breast
# [22] = system: IGROV1 ovarian
# [23] = system: NCI-H226 lung
# [24] = system: MALME-3M melanoma
# [25] = system: T-47D breast
# [26] = system: UACC-62 melanoma
# [27] = system: HOP-92 NSCLC
# [28] = system: LOX IMVI melanoma
# [29] = system: SK-OV-3 ovarian
# [30] = system: SR leukemia
# [31] = system: SK-MEL-5 melanoma
# [32] = system: MDA-MB-435
# [33] = system: A498 renal
# [34] = system: RXF 393 renal
# [35] = system: SN12C renal
# [36] = system: OVCAR-3 ovarian
# [37] = system: HCT-116 colon
# [38] = system: RPMI-8226 leukemia
# [39] = system: HL-60(TB) leukemia
# [40] = system: OVCAR-8 ovarian
# [41] = system: SF-268 CNS
# [42] = system: UACC-257 melanoma
# [43] = system: M14 melanoma
# [44] = system: OVCAR-5 ovarian
# [45] = system: HOP-62 NSCLC
# [46] = system: DU-145 prostate
# [47] = system: EKVX NSCLC
# [48] = system: 786-0 renal
# [49] = system: SNB-19 CNS
# [50] = system: SK-MEL-28 melanoma
# [51] = system: MDA-N
# [52] = system: NCI-H23 lung
# [53] = system: A549 NSCLC
# [54] = system: SF-539 CNS
# [55] = system: HCC-2998 colon
# [56] = system: SNB-75 CNS
# [57] = system: TK-10 renal
# [58] = system: CCRF-CEM leukemia
# [59] = system: NCI-H460 lung
smiles,measurement,setting,value
O=P(OCc1ccccc1)(OCc1ccccc1)C(O)/C=C/c1ccccc1 (centres undefined),TGI,[1],95.9 µM
same,TGI,[2],43.8 µM
same,TGI,[3],56.1 µM
same,TGI,[4],> 100 µM
same,TGI,[5],48.1 µM
same,TGI,[6],45.1 µM
same,TGI,[7],44.9 µM
same,TGI,[8],98.7 µM
same,TGI,[9],49.4 µM
same,TGI,[10],80.3 µM
same,TGI,[11],62.9 µM
same,TGI,[12],> 100 µM
same,TGI,[13],27.4 µM
same,TGI,[14],> 100 µM
same,TGI,[15],56.4 µM
same,TGI,[16],57.7 µM
same,TGI,[17],43.1 µM
same,TGI,[18],> 100 µM
same,TGI,[19],45.4 µM
same,TGI,[20],68.3 µM
same,TGI,[21],71.2 µM
same,TGI,[22],49.2 µM
same,TGI,[23],78.3 µM
same,TGI,[24],38.2 µM
same,TGI,[25],88.3 µM
same,TGI,[26],31.4 µM
same,TGI,[27],57.2 µM
same,TGI,[28],31.5 µM
same,TGI,[29],> 100 µM
same,TGI,[30],50.7 µM
same,TGI,[31],34.6 µM
same,TGI,[32],35.1 µM
same,TGI,[33],35.2 µM
same,TGI,[34],> 100 µM
same,TGI,[35],39 µM
same,TGI,[36],43.6 µM
same,TGI,[37],39.8 µM
same,TGI,[38],82.8 µM
same,TGI,[39],44.3 µM
same,TGI,[40],55.9 µM
same,TGI,[41],42.8 µM
same,TGI,[42],38.6 µM
same,TGI,[43],37 µM
same,TGI,[44],> 100 µM
same,TGI,[45],55.5 µM
same,TGI,[46],> 100 µM
same,TGI,[47],95.6 µM
same,TGI,[48],39.5 µM
same,TGI,[49],71.3 µM
same,TGI,[50],> 100 µM
same,TGI,[51],36 µM
same,TGI,[52],44.6 µM
same,TGI,[53],> 100 µM
Cc1ccc(C(=O)Cc2nc3c([nH]c2=O)c(C)nn3-c2ccccc2)c(C)c1,TGI,[1],> 10 µM
same,TGI,[3],5.19 µM
same,TGI,[4],> 10 µM
same,TGI,[5],> 10 µM
same,TGI,[6],> 10 µM
same,TGI,[7],> 10 µM
same,TGI,[8],> 10 µM
same,TGI,[9],> 10 µM
same,TGI,[54],> 10 µM
same,TGI,[11],> 10 µM
same,TGI,[12],> 10 µM
same,TGI,[55],> 10 µM
same,TGI,[13],> 10 µM
same,TGI,[14],> 10 µM
same,TGI,[15],> 10 µM
same,TGI,[16],> 10 µM
same,TGI,[56],3.46 µM
same,TGI,[17],> 10 µM
same,TGI,[18],> 10 µM
same,TGI,[19],> 10 µM
same,TGI,[20],> 10 µM
same,TGI,[21],> 10 µM
same,TGI,[22],> 10 µM
same,TGI,[24],> 10 µM
same,TGI,[25],> 10 µM
same,TGI,[26],> 10 µM
same,TGI,[27],> 10 µM
same,TGI,[28],> 10 µM
same,TGI,[29],> 10 µM
same,TGI,[30],> 10 µM
same,TGI,[31],> 10 µM
same,TGI,[32],> 10 µM
same,TGI,[35],> 10 µM
same,TGI,[36],8.94 µM
same,TGI,[37],> 10 µM
same,TGI,[38],> 10 µM
same,TGI,[57],> 10 µM
same,TGI,[39],> 10 µM
same,TGI,[40],> 10 µM
same,TGI,[41],> 10 µM
same,TGI,[42],> 10 µM
same,TGI,[43],> 10 µM
same,TGI,[45],> 10 µM
same,TGI,[46],> 10 µM
same,TGI,[48],> 10 µM
same,TGI,[49],> 10 µM
same,TGI,[50],> 10 µM
same,TGI,[58],> 10 µM
same,TGI,[51],> 10 µM
same,TGI,[52],> 10 µM
same,TGI,[53],> 10 µM
CC(=O)C1(O)CCC2(O)C3(O)CC=C4CC(O)CCC4(C)C3CC(OC(=O)c3ccc(O)cc3)C12C (centres undefined),TGI,[1],> 100 µM
same,TGI,[2],> 100 µM
same,TGI,[3],> 100 µM
same,TGI,[4],> 100 µM
same,TGI,[5],> 100 µM
same,TGI,[6],> 100 µM
same,TGI,[7],> 100 µM
same,TGI,[8],> 100 µM
same,TGI,[9],> 100 µM
same,TGI,[54],> 100 µM
same,TGI,[10],> 100 µM
same,TGI,[11],> 100 µM
same,TGI,[12],> 100 µM
same,TGI,[55],> 100 µM
same,TGI,[13],> 100 µM
same,TGI,[14],> 100 µM
same,TGI,[15],> 100 µM
same,TGI,[16],> 100 µM
same,TGI,[56],> 100 µM
same,TGI,[17],> 100 µM
same,TGI,[18],> 100 µM
same,TGI,[19],> 100 µM
same,TGI,[20],> 100 µM
same,TGI,[21],> 100 µM
same,TGI,[22],> 100 µM
same,TGI,[23],> 100 µM
same,TGI,[25],> 100 µM
same,TGI,[26],> 100 µM
same,TGI,[27],> 100 µM
same,TGI,[28],> 100 µM
same,TGI,[29],> 100 µM
same,TGI,[30],> 100 µM
same,TGI,[31],> 100 µM
same,TGI,[32],> 100 µM
same,TGI,[33],> 100 µM
same,TGI,[35],> 100 µM
same,TGI,[36],> 100 µM
same,TGI,[37],> 100 µM
same,TGI,[38],> 100 µM
same,TGI,[57],> 100 µM
same,TGI,[39],> 100 µM
same,TGI,[40],> 100 µM
same,TGI,[41],> 100 µM
same,TGI,[42],> 100 µM
same,TGI,[59],> 100 µM
same,TGI,[43],> 100 µM
same,TGI,[44],> 100 µM
same,TGI,[45],> 100 µM
same,TGI,[46],> 100 µM
same,TGI,[47],> 100 µM
same,TGI,[48],> 100 µM
same,TGI,[49],> 100 µM
same,TGI,[50],> 100 µM
same,TGI,[58],> 100 µM
same,TGI,[51],> 100 µM
same,TGI,[52],> 100 µM
same,TGI,[53],> 100 µM
NCCN(CCN(C(=O)Nc1ccccc1)c1ccccc1)C(=O)Nc1ccccc1,TGI,[1],59.9 µM
same,TGI,[2],45.2 µM
same,TGI,[4],46.6 µM
same,TGI,[5],> 100 µM
same,TGI,[6],56 µM
same,TGI,[7],67.4 µM
same,TGI,[9],36.4 µM
same,TGI,[10],39.3 µM
same,TGI,[11],> 100 µM
same,TGI,[12],90.3 µM
same,TGI,[55],44.3 µM
same,TGI,[13],> 100 µM
same,TGI,[14],> 100 µM
same,TGI,[15],> 100 µM
same,TGI,[16],41.1 µM
same,TGI,[56],45.4 µM
same,TGI,[18],76.4 µM
same,TGI,[19],> 100 µM
same,TGI,[20],48.3 µM
same,TGI,[21],69.4 µM
same,TGI,[22],36.7 µM
same,TGI,[23],98.6 µM
same,TGI,[24],34.2 µM
same,TGI,[25],90.8 µM
same,TGI,[26],35.3 µM
same,TGI,[27],44.2 µM
same,TGI,[28],47.6 µM
same,TGI,[29],44.9 µM
same,TGI,[30],> 100 µM
same,TGI,[31],43.1 µM
same,TGI,[33],40.5 µM
same,TGI,[34],34.5 µM
same,TGI,[35],69.7 µM
same,TGI,[37],33.5 µM
same,TGI,[38],> 100 µM
same,TGI,[57],60.3 µM
same,TGI,[39],74.8 µM
same,TGI,[40],52.2 µM
same,TGI,[41],49 µM
same,TGI,[42],36.4 µM
same,TGI,[59],42.8 µM
same,TGI,[43],53.4 µM
same,TGI,[44],45.6 µM
same,TGI,[45],34.8 µM
same,TGI,[46],40.1 µM
same,TGI,[47],67.3 µM
same,TGI,[48],55.4 µM
same,TGI,[49],> 100 µM
same,TGI,[50],35.9 µM
same,TGI,[58],> 100 µM
same,TGI,[51],47.8 µM
same,TGI,[52],63 µM
same,TGI,[53],> 100 µM
